From PubChem BioAssay AID504669 (Sanford-Burnham Center for Chemical Genomics, 2011) come the findings set out here.

This assay concerns the target Breast cancer type 1 susceptibility protein (Homo sapiens) + BRCA1-associated RING domain protein 1 (Homo sapiens) (UniProt P38398+Q99728). As to the kind of experiment: inhibition of Brca1/Bard1 split-luciferase complementation, dose response, counter-screen for Mdm2/MdmX interaction inhibitor project, cell-based, luminescence (AID 504669). The following applies: SaOS-2 Brca1/Bard1 split-luciferase complementation. A general note: The purpose of a counterscreen is to sort out artefacts and off-target activity.

Breast cancer type 1 susceptibility protein (Homo sapiens) + BRCA1-associated RING domain protein 1 (Homo sapiens), sequence (P38398 whole entry, looked up, the tested form may be a part): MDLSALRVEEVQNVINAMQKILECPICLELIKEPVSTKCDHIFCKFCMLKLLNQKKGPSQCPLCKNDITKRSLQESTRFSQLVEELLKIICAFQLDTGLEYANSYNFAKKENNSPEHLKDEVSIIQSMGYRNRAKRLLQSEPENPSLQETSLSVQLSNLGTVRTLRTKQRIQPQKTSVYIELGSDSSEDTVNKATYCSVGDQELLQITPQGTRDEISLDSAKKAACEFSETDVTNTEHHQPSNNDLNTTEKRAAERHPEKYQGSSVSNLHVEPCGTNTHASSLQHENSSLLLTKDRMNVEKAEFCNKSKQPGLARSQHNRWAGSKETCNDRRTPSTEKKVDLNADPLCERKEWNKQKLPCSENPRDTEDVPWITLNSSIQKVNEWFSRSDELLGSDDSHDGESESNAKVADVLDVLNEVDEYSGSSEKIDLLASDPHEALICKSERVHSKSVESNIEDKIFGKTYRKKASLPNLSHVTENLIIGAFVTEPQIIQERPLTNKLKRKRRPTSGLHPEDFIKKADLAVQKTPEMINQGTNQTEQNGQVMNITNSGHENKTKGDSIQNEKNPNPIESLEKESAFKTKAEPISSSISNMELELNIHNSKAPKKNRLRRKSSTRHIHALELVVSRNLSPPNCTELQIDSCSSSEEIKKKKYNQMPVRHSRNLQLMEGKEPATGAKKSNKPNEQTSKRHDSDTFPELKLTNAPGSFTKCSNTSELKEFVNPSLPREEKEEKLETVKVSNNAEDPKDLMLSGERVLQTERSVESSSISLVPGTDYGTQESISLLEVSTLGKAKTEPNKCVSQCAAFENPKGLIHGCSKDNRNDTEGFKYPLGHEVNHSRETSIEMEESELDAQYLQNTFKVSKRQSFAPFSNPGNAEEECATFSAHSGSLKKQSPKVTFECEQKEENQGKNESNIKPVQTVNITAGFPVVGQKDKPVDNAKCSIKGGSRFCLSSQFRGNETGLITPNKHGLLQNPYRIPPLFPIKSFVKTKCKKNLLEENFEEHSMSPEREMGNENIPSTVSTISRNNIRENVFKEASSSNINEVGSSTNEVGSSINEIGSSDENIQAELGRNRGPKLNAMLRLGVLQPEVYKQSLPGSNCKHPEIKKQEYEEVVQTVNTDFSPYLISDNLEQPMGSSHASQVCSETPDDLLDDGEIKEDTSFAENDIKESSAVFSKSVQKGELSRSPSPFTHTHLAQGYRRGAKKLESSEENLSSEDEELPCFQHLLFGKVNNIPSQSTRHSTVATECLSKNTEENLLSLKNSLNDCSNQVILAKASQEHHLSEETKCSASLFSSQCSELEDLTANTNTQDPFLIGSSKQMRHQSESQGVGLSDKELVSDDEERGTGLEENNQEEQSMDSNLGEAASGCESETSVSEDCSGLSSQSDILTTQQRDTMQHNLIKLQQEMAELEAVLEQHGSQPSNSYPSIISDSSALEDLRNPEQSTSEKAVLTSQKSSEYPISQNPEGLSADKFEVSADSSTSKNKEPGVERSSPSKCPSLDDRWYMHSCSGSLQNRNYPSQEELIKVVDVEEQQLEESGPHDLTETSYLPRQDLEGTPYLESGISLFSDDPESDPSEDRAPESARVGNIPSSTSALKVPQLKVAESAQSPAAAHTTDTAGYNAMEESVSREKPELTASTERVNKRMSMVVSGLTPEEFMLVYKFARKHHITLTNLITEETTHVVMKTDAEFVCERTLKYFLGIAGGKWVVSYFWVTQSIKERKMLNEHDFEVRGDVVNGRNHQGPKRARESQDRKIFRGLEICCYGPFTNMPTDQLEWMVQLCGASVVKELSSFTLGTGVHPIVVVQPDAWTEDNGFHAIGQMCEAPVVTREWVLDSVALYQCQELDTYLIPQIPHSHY
Breast cancer type 1 susceptibility protein (Homo sapiens) + BRCA1-associated RING domain protein 1 (Homo sapiens), sequence (Q99728 whole entry, looked up, the tested form may be a part): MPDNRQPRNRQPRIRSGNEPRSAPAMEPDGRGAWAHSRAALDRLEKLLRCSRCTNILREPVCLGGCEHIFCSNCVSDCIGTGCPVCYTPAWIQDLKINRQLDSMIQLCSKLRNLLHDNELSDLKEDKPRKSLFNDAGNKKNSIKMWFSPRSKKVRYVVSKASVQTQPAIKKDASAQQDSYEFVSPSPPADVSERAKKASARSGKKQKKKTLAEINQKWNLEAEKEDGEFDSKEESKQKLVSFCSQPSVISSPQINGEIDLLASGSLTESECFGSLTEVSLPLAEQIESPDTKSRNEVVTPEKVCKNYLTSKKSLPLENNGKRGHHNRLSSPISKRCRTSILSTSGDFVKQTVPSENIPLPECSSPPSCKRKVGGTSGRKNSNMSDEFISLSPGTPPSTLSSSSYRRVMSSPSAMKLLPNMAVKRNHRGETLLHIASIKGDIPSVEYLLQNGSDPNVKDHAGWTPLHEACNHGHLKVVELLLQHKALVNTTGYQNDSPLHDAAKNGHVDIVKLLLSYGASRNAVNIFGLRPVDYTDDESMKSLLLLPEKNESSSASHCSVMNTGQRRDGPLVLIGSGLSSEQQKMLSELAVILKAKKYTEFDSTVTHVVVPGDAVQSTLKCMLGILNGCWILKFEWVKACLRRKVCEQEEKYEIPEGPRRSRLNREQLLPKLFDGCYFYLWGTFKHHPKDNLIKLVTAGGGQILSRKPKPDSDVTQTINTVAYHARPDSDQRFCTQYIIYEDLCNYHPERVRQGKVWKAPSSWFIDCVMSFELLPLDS

The term IC50 denotes the concentration at which inhibition is half-maximal. For the molecule `CC1(C)C(=O)Nc2ccccc2N1C(=O)Cn1ncc(Cl)c(Cl)c1=O`, the IC50 is 8.39 µM. Turning to `CCN1C/C(=C/c2ccc(OC)c(O)c2)C(=O)/C(=C/c2ccc(OC)c(O)c2)C1`, the IC50 was 9.78 µM. The result for `O=C(/C=C/c1c(F)cccc1Cl)c1ccc(O)cc1` reads 6.64 µM; that for `Cn1nc([N+](=O)[O-])nc1Sc1nnc(-c2ccccc2)o1`, 12.3 µM; that for `CCOC(=O)c1ccc(Nc2nc(N)c3cc(OC)c(OC)cc3n2)cc1`, 14.3 µM. The result for `O=C(CN1CCCc2ccccc21)N/N=C/c1c(O)ccc2ccccc12` reads 1.97 µM.

Take `Cc1cccn2c(=O)c3cc(C(=O)NCCc4ccccc4)c(=N)n(Cc4ccco4)c3nc12`: the IC50 was 4.13 µM. The result for `C/C(=N\Nc1cc(C)nc(-c2ccccc2O)n1)c1ccccc1O` reads 5.35 µM. Regarding `Cc1nc(NC2=NCN(CCCN3CCOCC3)CN2)nc2c(C)cccc12`, the IC50 is 5.59 µM.

For `O=[N+]([O-])c1ccccc1S(=O)(=O)Nc1cccc2cccnc12`, the IC50 was 4.37 µM. The result for `COCCn1c(C)cc(C2=NNC(=Nc3ccccc3F)SC2)c1C` reads 0.493 µM; that for `CC(=O)c1ccc(-c2ccc(C(=O)Nc3nc(-c4ccccn4)cs3)o2)cc1`, 4.85 µM; that for `COc1ccc(-c2cc3c(=O)n(CC(=O)NCCCN4CCC(N5CCCCC5)CC4)nc(C)n3n2)cc1`, 10.6 µM. The result for `CCN(CC)S(=O)(=O)c1ccc(NC(=O)c2cccnc2Cl)c(NC(=O)c2cccnc2Cl)c1` reads 10.1 µM. Regarding `COc1ccc2c(c1)C1(Nc3ccccc3-c3nc4ccccc4n31)C(=O)N2C` (stereo not given), the IC50 was 1.18 µM. In the case of `CCOc1cc(N2CCOCC2)c(OCC)cc1NC(=O)COc1cccc2cccnc12` it was 5.07 µM; in that of `CC(C)c1cccc(O)c(=O)c1`, 3.89 µM. In the case of `O=c1oc2ccccc2cc1-c1cn(-c2ccccc2)c(=S)[nH]1` it was 0.00353 µM; in that of `COc1cc(-c2nc(-c3ccc(NC(=O)c4ccc5c(c4)OCO5)cc3)no2)cc(OC)c1OC`, 13.4 µM.

As to `CCOC(=O)/C=C/C(=O)OCC(=O)NC(c1ccccc1)c1ccccc1`, the IC50 is 3.9 µM.
